Results from article PMC4376459, “CXCR3 antagonist VUF10085 binds to an intrahelical site distinct from that of the broad spectrum antagonist TAK-779” (British Journal of Pharmacology, 2015).
Changes are numbered by the printed parent chain.

Assays:
Assay in all cases: Whole-cell 125I-CXCL11 binding assay, L1.2 transfectants
WT CXCR3 = molecular target: T1, WT CXCR3 (Homo sapiens, UniProt P49682); conditions: WT CXCR3 transfectants (Figure 1); read-out: IC50 for displacement of 125I-CXCL11
T1 construct: expressed in transfected cells; host or cells: murine pre-B cell line L1.2, transient transfection by electroporation
T1 sequence (P49682 1-368): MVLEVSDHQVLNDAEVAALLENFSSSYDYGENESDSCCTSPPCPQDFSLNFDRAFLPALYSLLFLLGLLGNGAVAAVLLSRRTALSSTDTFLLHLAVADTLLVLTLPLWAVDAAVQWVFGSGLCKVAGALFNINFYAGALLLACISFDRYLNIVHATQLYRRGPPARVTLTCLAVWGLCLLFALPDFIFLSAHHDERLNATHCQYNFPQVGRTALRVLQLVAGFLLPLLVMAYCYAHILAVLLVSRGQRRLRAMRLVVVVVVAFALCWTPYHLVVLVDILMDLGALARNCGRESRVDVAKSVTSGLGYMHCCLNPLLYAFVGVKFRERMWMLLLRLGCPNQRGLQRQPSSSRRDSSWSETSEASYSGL

D112N-CXCR3 = molecular target: T2, D112N-CXCR3 (Homo sapiens, UniProt P49682, D112N); conditions: D112N-CXCR3 transfectants (Figure 1); read-out: IC50 for displacement of 125I-CXCL11
T2 construct: expressed in transfected cells; host or cells: murine pre-B cell line L1.2, transient transfection
T2 sequence (P49682 1-368 D112N): T1 sequence (P49682 1-368) with D112N

CXCR3 Y308A = molecular target: T3, CXCR3 Y308A (Homo sapiens, UniProt P49682, Y308A)
T3 construct: expressed in transfected cells; host or cells: murine pre-B cell line L1.2, transient transfection
T3 sequence (P49682 1-368 Y308A): T1 sequence (P49682 1-368) with Y308A

CXCR3 F207A = molecular target: T4, CXCR3 F207A (Homo sapiens, UniProt P49682, F207A); conditions: maximum concentration of CXCL11
T4 construct: expressed in transfected cells; host or cells: murine pre-B cell line L1.2, transient transfection
T4 sequence (P49682 1-368 F207A): T1 sequence (P49682 1-368) with F207A
Procedure: (§1) A previously described pcDNA3 plasmid containing human wild type (WT) CXCR3 cDNA with an HA epitope tag encoded at the N terminus (Meiser et al., [2008]) was used as a template for the generation of point mutants by PCR using the QuikChange II site-directed mutagenesis kit (Stratagene, Amsterdam, the Netherlands). All constructs were verified by DNA sequencing (Eurofins MWG Operon, Ebersberg, Germany) before use. L1.2 cells were transiently transfected by electroporation with 1 μg of vector DNA/10^6 cells at 330V, 975μF and incubated overnight in medium supplemented with 10 mM of sodium butyrate to enhance gene expression.
(§2) Whole-cell binding assays on transiently transfected L1.2 cells were performed as described previously (Vaidehi et al., [2009]) using 0.1 nM ^125I-CXCL11 (Perkin Elmer) and increasing concentrations of unlabeled CXCL11 or antagonist. Cell-associated radioactivity was counted in a Canberra Packard Cobra 5010 gamma counter (Canberra Packard, Pangebourne, UK). Curve fitting and subsequent data analysis was carried out using the program PRISM (GraphPad Software, Inc., San Diego, CA, USA) and IC50 values were obtained by non-linear regression analysis. In all experiments, each data point was assayed in duplicate, with each individual experiment repeated three times. Background binding levels obtained in the presence of a 1000–3000 molar excess of unlabelled chemokine were subtracted from each data point and data are presented as the percentage of counts obtained in the absence of competing ligand. KD values and the number of binding sites per cell were calculated from homologous binding curves prepared in Graph Pad Prism (La Jolla, CA, USA) as previously described (Nedjai et al., [2011]).

CXCR3 N132A = molecular target: T5, CXCR3 N132A (Homo sapiens, UniProt P49682, N132A); conditions: maximum concentration of CXCL11
T5 construct: expressed in transfected cells; host or cells: murine pre-B cell line L1.2, transient transfection
T5 sequence (P49682 1-368 N132A): T1 sequence (P49682 1-368) with N132A
Procedure: as §1, §2

| IC50 (WT CXCR3) | IC50 (D112N-CXCR3) | reduction in IC50 value, ligand binding (CXCR3 Y308A; Y308A relative to WT) | IC50 (CXCR3 Y308A; Y308A, 0.1 nM 125I-CXCL11, read-out: IC50 ligand binding (mean ± SEM)) | displacement of 125I-CXCL11 by unlabelled CXCL11 (CXCR3 F207A) | displacement of 125I-CXCL11 by unlabelled CXCL11 (CXCR3 N132A) | Compound |
| --- | --- | --- | --- | --- | --- | --- |
| 15.6 µM | 17.2 µM | twofold | 14.2 ± 3 µM | – | – | Cc1ccc(-c2ccc3c(c2)C=C(C(=O)Nc2ccc(C[N+](C)(C)C4CCOCC4)cc2)CCC3)cc1.[Cl-] [TAK-779, N,N-dimethyl-N-[4-[[[2-(4-methylphenyl)-6,7-dihydro-5H-benzocyclohepten-8-yl]-carbonyl]amino]benzyl] tetrahydro-2H-pyran-4-aminium chloride] |
| – | – | – | – | unable to displace 50% | unable to displace 50% | CXCL11: recombinant human chemokine, CXCR3 agonist, purchased from PeproTech |
